We go through two compounds from patent US9546144B2, “Bifunctional compounds” (University of Pittsburgh—of the Commonwealth System of …, priority 2011, dated 2017).

This data set in a line: physchem. The conditions noted are these: aqueous buffer, kinetic from dmso stock.

Values after ≈ are worked out from the molar mass of the structure shown.

Procedure: General procedure for kinetic solubility measurements. A polypropylene tube was charged with PBS solution (490 μL). To the buffer was added a 10 mM stock solution of compound (10 μL). The tube was vortexed and equilibrated on an end-over-end rotator for 15 min at rt. Aliquots (400 μL) were filtered through 0.45 μm syringe filters and diluted to 5.0 mL with absolute MeOH. Concentrations were determined by UV/VIS analysis.
The test compounds were prepared at concentrations of 10 mM and added to the buffer at room temperature such that cosolvent concentration was fixed at 2%.

As to `COC(=O)Nc1nc2ccccc2[nH]1` [compound 10, carbendazim], the kinetic solubility (commonly solubility judged after dilution from a stock solution rather than from solid) at 15 min was 140 ± 13 µM (≈ 26.8 µg/mL).
In turn, `COC1=CC(=O)C[C@@H](C)[C@]12Oc1c(Cl)c(OC)cc(OC)c1C2=O` [compound 11, griseofulvin] displayed a solubility (kinetic) at 15 min of 180 ± 13 µM (≈ 63.5 µg/mL).
